The results in this text go back to EP4813993A1, “COMPOUND, PREPARATION METHOD THEREFOR, AND USE THEREOF” (Sichuan Kelun Pharmaceutical Research Institute Co., Ltd., priority 2023, dated 2025).

For orientation: inhibition means the percentage by which the read-out fell short of the control.

The structures appear in SMILES notation.

The target in the first assay is T1, Nav1.8 channels (Homo sapiens, UniProt Q9Y5Y9).
T1 construct: expressed in transfected cells
T1 sequence (Q9Y5Y9 whole entry): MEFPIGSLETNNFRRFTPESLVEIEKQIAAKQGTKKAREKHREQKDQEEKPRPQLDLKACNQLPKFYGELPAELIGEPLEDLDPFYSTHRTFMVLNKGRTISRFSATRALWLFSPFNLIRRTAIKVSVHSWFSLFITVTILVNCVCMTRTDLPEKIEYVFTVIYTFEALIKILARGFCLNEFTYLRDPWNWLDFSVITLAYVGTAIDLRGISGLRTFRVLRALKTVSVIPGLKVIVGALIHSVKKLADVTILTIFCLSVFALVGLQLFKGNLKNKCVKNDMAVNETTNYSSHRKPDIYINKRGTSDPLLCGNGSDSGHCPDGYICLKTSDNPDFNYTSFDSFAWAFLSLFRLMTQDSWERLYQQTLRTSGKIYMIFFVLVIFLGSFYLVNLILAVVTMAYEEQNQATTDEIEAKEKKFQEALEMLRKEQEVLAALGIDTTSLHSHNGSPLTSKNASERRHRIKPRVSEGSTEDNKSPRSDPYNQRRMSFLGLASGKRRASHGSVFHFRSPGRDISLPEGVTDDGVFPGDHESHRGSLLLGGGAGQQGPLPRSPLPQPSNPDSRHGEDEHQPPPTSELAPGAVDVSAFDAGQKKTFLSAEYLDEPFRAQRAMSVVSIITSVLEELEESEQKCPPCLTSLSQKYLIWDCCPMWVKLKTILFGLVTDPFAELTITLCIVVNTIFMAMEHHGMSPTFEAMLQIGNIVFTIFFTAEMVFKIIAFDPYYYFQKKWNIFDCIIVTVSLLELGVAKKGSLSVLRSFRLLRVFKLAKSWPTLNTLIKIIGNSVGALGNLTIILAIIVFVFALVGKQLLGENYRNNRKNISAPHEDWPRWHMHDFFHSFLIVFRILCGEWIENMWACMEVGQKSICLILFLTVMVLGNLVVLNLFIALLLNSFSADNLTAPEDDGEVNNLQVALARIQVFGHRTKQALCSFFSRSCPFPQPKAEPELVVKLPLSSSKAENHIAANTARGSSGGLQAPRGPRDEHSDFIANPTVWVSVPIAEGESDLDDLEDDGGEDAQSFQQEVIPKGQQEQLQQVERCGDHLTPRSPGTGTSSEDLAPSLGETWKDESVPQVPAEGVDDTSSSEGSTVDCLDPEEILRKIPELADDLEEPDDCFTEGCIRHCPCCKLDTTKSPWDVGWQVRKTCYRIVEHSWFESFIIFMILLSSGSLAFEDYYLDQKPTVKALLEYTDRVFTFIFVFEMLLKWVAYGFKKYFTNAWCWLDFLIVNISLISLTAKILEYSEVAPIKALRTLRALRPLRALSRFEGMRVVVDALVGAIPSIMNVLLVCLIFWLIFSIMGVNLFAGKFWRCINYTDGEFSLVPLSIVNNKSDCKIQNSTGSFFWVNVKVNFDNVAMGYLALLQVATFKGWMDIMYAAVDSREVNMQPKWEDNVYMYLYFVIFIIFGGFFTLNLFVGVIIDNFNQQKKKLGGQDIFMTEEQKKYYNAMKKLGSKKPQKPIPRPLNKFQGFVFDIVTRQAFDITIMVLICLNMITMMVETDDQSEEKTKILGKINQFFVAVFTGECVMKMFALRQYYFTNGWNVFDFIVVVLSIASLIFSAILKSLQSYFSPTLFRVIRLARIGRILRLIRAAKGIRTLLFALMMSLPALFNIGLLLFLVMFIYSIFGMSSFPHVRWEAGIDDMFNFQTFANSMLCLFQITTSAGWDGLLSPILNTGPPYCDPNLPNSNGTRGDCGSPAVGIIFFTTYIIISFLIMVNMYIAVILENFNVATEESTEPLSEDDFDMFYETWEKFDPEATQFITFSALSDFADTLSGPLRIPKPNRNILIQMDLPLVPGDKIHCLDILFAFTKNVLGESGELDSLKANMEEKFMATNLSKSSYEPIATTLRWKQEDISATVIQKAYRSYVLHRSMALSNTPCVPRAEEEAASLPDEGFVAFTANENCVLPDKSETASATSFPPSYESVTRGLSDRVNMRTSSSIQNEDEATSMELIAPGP
Kind of assay: Manual patch-clamp, current of stably overexpressed Nav1.8 channels (resting state voltage program). The format is cell-based. Conditions: concentration of 1 nM, read-out: Inhibition rate %. The method, then: Experimental Example 1: Effects of test substances on current of stably overexpressed Nav1.8 channels monitored via manual patch-clamp technique
Test compounds were dissolved in dimethyl sulfoxide (DMSO).
The extracellular fluid was as follows: 140 mM NaCl, 3.5 mM KCl, 1 mM MgCl2•6H2O, 2 mM CaCl2•2H2O, 10 mM D-Glucose, 10 mM HEPES, 1.25 mM NaH2PO4•2H2O; the pH was adjusted to 7.4 with NaOH. The intracellular fluid was as follows: 50 mM CsCl, 10 mM NaCl, 10 mM HEPES, 60 mM CsF, 20 mM EGTA; the pH was adjusted to 7.2 with CsOH.
2. Experimental materials and instruments
• 1) patch-clamp amplifier: EPC 10 (HEKA) • 2) micromanipulator: MP225 (Sutter Instrument) • 3) inverted microscope: MF53 (Mshot) • 4) micropipette puller: P97 (Sutter Instrument) • 5) capillary glass tube: BF150-86-10 (Sutter Instrument)
3. Experimental procedures
• 1) After the compounds were prepared into solutions with specified concentrations, the solutions were sequentially added to the pipeline of the drug delivery system and labeled. • 2) The cell climbing coverslip was placed in the recording chamber, the appropriate cells were selected under the inverted microscope, and the position of the drug delivery tip was adjusted. • 3) A capillary glass tube was pulled into a suitable recording electrode using the micropipette puller, and then the electrode filled with the intracellular fluid was mounted in the microelectrode holder. The micromanipulator was adjusted under the inverted microscope to allow the recording electrode to contact the cell, and negative pressure was applied to the electrode to form a high-resistance seal. At this time, fast capacitance compensation was performed, and then the application of negative pressure was continued to break the cell membrane, forming a whole-cell recording mode. Finally, slow capacitance compensation was performed, and related parameters were recorded. • 4) After the cell current stabilized, administration was started. Each concentration of the drug was applied for five minutes or until the current stabilized before proceeding to monitor the next concentration. The drug solutions were administered via gravity-fed delivery, flowing through the recording chamber to act on the cells in an ascending order of concentration (from low to high). A peristaltic pump was employed for solution exchange in the recording process.
4 Test voltage program (resting state) and results
After the formation of the whole-cell seal, the cell voltage was clamped at -120 mV, followed by depolarization to 0 mV using a square-wave pulse with a duration of 50 ms to elicit Nav1.8 currents. This procedure was repeated every 20 s to monitor the maximum current induced by the square wave. After the current stabilized, the test compounds were administered. Once the response stabilized, the intensity of the current block was calculated.
For orientation: The patch-clamp technique gives a direct electrical read-out from membranes.
`COc1c(C2CC(C)(C(F)(F)F)SC2C(=O)Nc2ccc3nnnn3c2)ccc(F)c1F` (centres unmarked) [Compound 202, 3-(3,4-difluoro-2-methoxyphenyl)-5-methyl-N-(tetrazolo[1,5-a]pyridin-6-yl)-5-(trifluoromethyl)tetrahydrothiophene-2-carboxamide]: the inhibition at 0.001 µM came to 81%. The same measure, in the same setting: for `COc1c(C2CC(C)(C(F)(F)F)SC2C(=O)Nc2ccn3nnnc3c2)ccc(F)c1F` (centres unmarked) [Compound 203, 3-(3,4-difluoro-2-methoxyphenyl)-5-methyl-N-(tetrazolo[1,5-a]pyridin-7-yl)-5-(trifluoromethyl)tetrahydrothiophene-2-carboxamide] the value was 80.4%; for `COc1c(C2CC(C)(C(F)(F)F)SC2C(=O)Nc2cccc(S(C)(=N)=O)c2)ccc(F)c1F` (centres unmarked) [Compound 225, 3-(3,4-difluoro-2-methoxyphenyl)-5-methyl-N-(3-(S-methylsulfonimidoyl)phenyl)-5-(trifluoromethyl)tetrahydrothiophene-2-carboxamide], 91.2%; for `COc1c([C@@H]2C[C@](C)(C(F)(F)F)S[C@H]2C(=O)Nc2ccc(C(=O)O)c(O)c2)ccc(F)c1F` [Compound 226-A, 4-((2R,3S,5R)-3-(3,4-difluoro-2-methoxyphenyl)-5-methyl-5-(trifluoromethyl)tetrahydrothiophene-2-carboxamido)-2-hydroxybenzoic acid], 32.2%. With `COc1c([C@@H]2C[C@](C)(C(F)(F)F)S[C@H]2C(=O)Nc2ccc(B3OC(C)(C)C(C)(C)O3)c(F)c2)ccc(F)c1F` [Compound 229-A, (2R,3S,5R)-3-(3,4-difluoro-2-methoxyphenyl)-N-(3-fluoro-4-(4,4,5,5-tetramethyl-1,3,2-dioxaborolan-2-yl)phenyl)-5-methyl-5-(trifluoromethyl)tetrahydrothiophene-2-carboxamide], the inhibition at 0.001 µM came to 48.6%. The same measure, in the same setting: for `COc1c(C2CC(C)(C(F)(F)F)SC2C(=O)Nc2ccc([S+](C)[O-])nc2)ccc(F)c1F` (centres unmarked) [Compound 232, 3-(3,4-difluoro-2-methoxyphenyl)-5-methyl-N-(6-(methylsulfinyl)pyridin-3-yl)-5-(trifluoromethyl)tetrahydrothiophene-2-carboxamide] the value was 78.4%; for `COc1c([C@@H]2C[C@](C)(C(F)(F)F)S[C@H]2C(=O)Nc2ccc([S+](C)[O-])nc2)ccc(F)c1F` (stereo partly drawn) [Compound 238-A, (2R,3S,5R)-3-(3,4-difluoro-2-methoxyphenyl)-5-methyl-N-(6-(methylsulfinyl)pyridin-3-yl)-5-(trifluoromethyl)tetrahydrothiophene-2-carboxamide], 85.5%; for `COc1c([C@@H]2C[C@](C)(C(F)(F)F)S[C@H]2C(=O)Nc2ccnc(C(F)F)c2)ccc(F)c1F` [Compound 244-A, (2R,3S,5R)-3-(3,4-difluoro-2-methoxyphenyl)-N-(2-(difluoromethyl)pyridin-4-yl)-5-methyl-5-(trifluoromethyl)tetrahydrothiophene-2-carboxamide], 87.8%. Turning to `COc1c([C@@H]2C[C@](C)(C(F)(F)F)S[C@H]2C(=O)Nc2ccc3nonc3c2)ccc(F)c1F` [Compound 248-A, (2R,3S,5R)-N-(benzo[c][1,2,5]oxadiazol-5-yl)-3-(3,4-difluoro-2-methoxyphenyl)-5-methyl-5-(trifluoromethyl)tetrahydrothiophene-2-carboxamide], the inhibition at 0.001 µM worked out at 72.6%. The same measure, in the same setting: the result for `COc1c([C@@H]2C[C@](C)(C(F)(F)F)S[C@H]2C(=O)Nc2ccc(N)c(S(N)(=O)=O)c2)ccc(F)c1F` [Compound 249-A, (2R,3S,5R)-N-(4-amino-3-sulfamoylphenyl)-3-(3,4-difluoro-2-methoxyphenyl)-5-methyl-5-(trifluoromethyl)tetrahydrothiophene-2-carboxamide] reads 81.6%; that for `C=CC(=O)Nc1cc(NC(=O)[C@@H]2S[C@@](C)(C(F)(F)F)C[C@H]2c2ccc(F)c(F)c2OC)ccn1` [Compound 252-A, (2R,3S,5R)-N-(2-acrylamidopyridin-4-yl)-3-(3,4-difluoro-2-methoxyphenyl)-5-methyl-5-(trifluoromethyl)tetrahydrothiophene-2-carboxamide], 62.7%.

Regarding `CNC(=O)c1cc(NC(=O)[C@@H]2S[C@@](C)(C(F)(F)F)C[C@H]2c2ccc(F)c(F)c2OC)ccn1` [Compound 253-A, 4-((2R,3S,5R)-3-(3,4-difluoro-2-methoxyphenyl)-5-methyl-5-(trifluoromethyl)tetrahydrothiophene-2-carboxamido)-N-methylpicolinamide], the inhibition at 0.001 µM worked out at 68.6%.

The assay is the same for the next values; noted with them: concentration of 10 nM, read-out: Inhibition rate %.
Consider `COc1c([C@@H]2C[C@](C)(C(F)(F)F)S[C@H]2C(=O)Nc2ccnc(OCC(O)CO)c2)ccc(F)c1F` (stereo partly drawn) [Compound 191-A, (2R,3S,5R)-3-(3,4-difluoro-2-methoxyphenyl)-N-(2-(2,3-dihydroxypropoxy)pyridin-4-yl)-5-methyl-5-(trifluoromethyl)tetrahydrothiophene-2-carboxamide], for which the inhibition at 0.01 µM came out at 88.8%.

With `COc1c(C2CC(C)(C(F)(F)F)SC2C(=O)Nc2ccnc(S(C)(=O)=O)c2)ccc(F)c1F` (centres unmarked) [Compound 192, (4-(3-(3,4-difluoro-2-methoxyphenyl)-5-methyl-5-(trifluoromethyl)tetrahydrothiophene-2-carboxamido)-2-methylsulfonyl)pyridine], the inhibition at 0.01 µM was found to be 96.4%.

With `COc1c(C2CC(C)(C(F)(F)F)SC2C(=O)Nc2conc2C)ccc(F)c1F` (centres unmarked) [Compound 197, 3-(3,4-difluoro-2-methoxyphenyl)-5-methyl-N-(3-methylisoxazol-4-yl)-5-(trifluoromethyl)tetrahydrothiophene-2-carboxamide], the inhibition at 0.01 µM was 91.1%. As for `COc1c(C2CC(C)(C(F)(F)F)SC2C(=O)Nc2cn(C(F)F)nc2C)ccc(F)c1F` (centres unmarked) [Compound 199, (4-(3-(3,4-difluoro-2-methoxyphenyl)-5-methyl-5-(trifluoromethyl)tetrahydrothiophene-2-carboxamido)-1-difluoromethyl-3-methyl)pyrazole], the inhibition at 0.01 µM was 89.4%.

Consider `COc1c(C2CC(C)(C(F)(F)F)SC2C(=O)Nc2ccc3c(c2)COB3O)ccc(F)c1F` (centres unmarked) [Compound 219, 3-(3,4-difluoro-2-methoxyphenyl)-N-(1-hydroxy-1,3-dihydrobenzo[c][1,2]oxaborol-5-yl)-5-methyl-5-(trifluoromethyl)tetrahydrothiophene-2-carboxamide], for which the inhibition at 0.01 µM worked out at 88%. Turning to `[2H]C1(C(=O)Nc2ccnc(O)c2)SC(C)(C(F)(F)F)CC1c1ccc(F)c(F)c1OC` (stereo not drawn) [Compound 222, 3-(3,4-difluoro-2-methoxyphenyl)-N-(2-hydroxypyridin-4-yl)-5-methyl-5-(trifluoromethyl)tetrahydrothiophene-2-d-2-carboxamide], the inhibition at 0.01 µM turned out to be 97%. Regarding `COc1c(C2CC(C)(C(F)(F)F)SC2C(=O)Nc2ccc(F)c(S(C)(=N)=O)c2)ccc(F)c1F` (centres unmarked) [Compound 227, 3-(3,4-difluoro-2-methoxyphenyl)-N-(4-fluoro-3-(S-methylsulfonimidoyl)phenyl)-5-methyl-5-(trifluoromethyl)tetrahydrothiophene-2-carboxamide], the inhibition at 0.01 µM came out at 97.7%. As to `COc1c([C@@H]2C[C@](C)(C(F)(F)F)S[C@H]2C(=O)Nc2ccc(SC)nc2)ccc(F)c1F` [Compound 231-A, (2R,3S,5R)-3-(3,4-difluoro-2-methoxyphenyl)-5-methyl-N-(6-(methylthio)pyridin-3-yl)-5-(trifluoromethyl)tetrahydrothiophene-2-carboxamide], the inhibition at 0.01 µM came to 83.7%. On the same count and under the same terms, the result for `COc1c(C2CC(C)(C(F)(F)F)SC2C(=O)Nc2ccc([S+](C)[O-])nc2)ccc(F)c1F` (centres unmarked) [Compound 232, 3-(3,4-difluoro-2-methoxyphenyl)-5-methyl-N-(6-(methylsulfinyl)pyridin-3-yl)-5-(trifluoromethyl)tetrahydrothiophene-2-carboxamide] reads 96.1%; that for `COc1c([C@@H]2C[C@](C)(C(F)(F)F)S[C@H]2C(=O)Nc2cccc(S(=O)(=O)N(C)C)c2)ccc(F)c1F` [Compound 240-A, (2R,3S,5R)-3-(3,4-difluoro-2-methoxyphenyl)-N-(3-(N,N-dimethylsulfamoyl)phenyl)-5-methyl-5-(trifluoromethyl)tetrahydrothiophene-2-carboxamide], 87.4%; that for `CNS(=O)(=O)c1cccc(NC(=O)[C@@H]2S[C@@](C)(C(F)(F)F)C[C@H]2c2ccc(F)c(F)c2OC)c1` [Compound 241-A, (2R,3S,5R)-3-(3,4-difluoro-2-methoxyphenyl)-5-methyl-N-(3-(N-methylsulfamoyl)phenyl)-5-(trifluoromethyl)tetrahydrothiophene-2-carboxamide], 95.4%.
